# In patent US12344603B2 (Genentech, Inc., priority 2020, dated 2025):
# pIC50: −log10 of the molar value. Counter-ions that a name gives are not always drawn.
# Target: IRE1α (Homo sapiens (Human), UniProt O75460, D688N)
# Test: IRE1α TR-FRET competition binding assay (IRE1α HTRF)
# Conditions: TR-FRET competition binding to kinase domain of IRE1α
# Outline: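 Kinase domain (0.25 nM) pre-bound to 2 nM Eu anti-His antibody for 1 h at 4° C in HEPES pH 7.5/MgCl2/Brij 35/DTT/gamma globulin buffer, then mixed with compounds and 2 nM Alexa 647 ATP-competitive probe. 1 h at room temperature; probe displacement read as TR-FRET (Ex 347 nm, Em 665/615 nm).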
# Chain of IRE1α (O75460 547-977 D688N): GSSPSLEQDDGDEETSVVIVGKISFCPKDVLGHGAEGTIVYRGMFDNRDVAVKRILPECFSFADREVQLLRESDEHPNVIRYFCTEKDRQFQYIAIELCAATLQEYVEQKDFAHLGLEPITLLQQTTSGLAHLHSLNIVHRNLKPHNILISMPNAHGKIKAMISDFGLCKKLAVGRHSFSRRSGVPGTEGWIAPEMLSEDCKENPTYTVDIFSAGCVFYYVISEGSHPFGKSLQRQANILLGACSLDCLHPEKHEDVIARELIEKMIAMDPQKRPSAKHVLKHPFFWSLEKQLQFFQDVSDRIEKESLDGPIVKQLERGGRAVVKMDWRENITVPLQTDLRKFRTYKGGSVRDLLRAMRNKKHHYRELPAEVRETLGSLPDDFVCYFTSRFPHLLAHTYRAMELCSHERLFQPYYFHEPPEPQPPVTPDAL
row,pIC50,Compound
1,9.68,"CC(C)n1c(=O)c(-c2ccc(NS(=O)(=O)CC3CCC3(F)F)c(F)c2)cc2cnc(N[C@H]3CC[C@H](N(C)C)CC3)nc21 (single isomer, unassigned) [Compound 153A, 1-(2,2-Difluorocyclobutyl)-N-(4-(2-(((1r,4r)-4-(dimethylamino)cyclohexyl)amino)-8-isopropyl-7-oxo-7,8-dihydropyrido[2,3-d]pyrimidin-6-yl)-2-fluorophenyl)methanesulfonamide]"
2,8.80,"CC(C)n1c(=O)c(-c2cc(F)c(NC(=O)[C@@H]3C[C@@H]3F)c(F)c2F)cc2cnc(N[C@H]3CC[C@H](N(C)C)CC3)nc21 [Compound 96, (1S,2S)—N-(4-(2-(((r,4r)-4-(dimethylamino)cyclohexyl)amino)-8-isopropyl-7-oxo-7,8-dihydropyrido[2,3-d]pyrimidin-6-yl)-2,3,6-trifluorophenyl)-2-fluorocyclopropane-1-carboxamide]"
3,10.10,"CC(C)n1c(=O)c(-c2c(F)cc(NS(=O)(=O)Cc3ccc(F)cc3)cc2F)cc2cnc(N[C@H]3CC[C@H](N(C)C)CC3)nc21 [Compound 129, N-(4-(2-(((1r,4r)-4-(Dimethylamino)cyclohexyl)amino)-8-isopropyl-7-oxo-7,8-dihydropyrido[2,3-d]pyrimidin-6-yl)-3,5-difluorophenyl)-1-(4-fluorophenyl)methanesulfonamide hydrochloride]"
4,9.30,"CC(C)n1c(=O)c(-c2ccc(NS(=O)(=O)CCC(F)(F)F)cn2)cc2cnc(N[C@H]3CC[C@H](N(C)C)[C@H](F)C3)nc21 [Example 223, N-(6-(2-(((1S,3R,4S)-4-(Dimethylamino)-3-fluorocyclohexyl)amino)-8-isopropyl-7-oxo-7,8-dihydropyrido[2,3-d]pyrimidin-6-yl)pyridin-3-yl)-3,3,3-trifluoropropane-1-sulfonamide]"
5,9.72,"CC(C)n1c(=O)c(-c2ccc(NS(=O)(=O)C3CCCC3)c(F)c2)cc2cnc(N[C@H]3CC[C@H](N(C)C)CC3)nc21 [Compound 134, N-(4-(2-(((1r,4r)-4-(Dimethylamino)cyclohexyl)amino)-8-isopropyl-7-oxo-7,8-dihydropyrido[2,3-d]pyrimidin-6-yl)-2-fluorophenyl)cyclopentanesulfonamide hydrochloride]"
6,9.30,"CC(C)n1c(=O)c(-c2ccc(NS(=O)(=O)CCC(F)(F)F)c(F)c2)nc2cnc(N[C@@H]3CNC[C@@H](F)C3)nc21 [Compound 73, 3,3,3-Trifluoro-N-[2-fluoro-4-[2-[[(3S,5S)-5-fluoro-3-piperidyl]amino]-8-isopropyl-7-oxo-pteridin-6-yl]phenyl]propane-1-sulfonamide]"
7,9.80,"CC(C)n1c(=O)c(-c2ccc(NS(=O)(=O)CC3CCC3(F)F)c(F)c2)cc2cnc(N[C@H]3CC[C@H](N(C)C)CC3)nc21 (single isomer, unassigned) [Compound 153B, 1-(2,2-Difluorocyclobutyl)-N-(4-(2-(((1r,4r)-4-(dimethylamino)cyclohexyl)amino)-8-isopropyl-7-oxo-7,8-dihydropyrido[2,3-d]pyrimidin-6-yl)-2-fluorophenyl)methanesulfonamide]"
8,9.16,"Cc1nc(NS(=O)(=O)c2cccc(C#N)c2)ccc1-c1cc2cnc(N[C@H]3CC[C@H](N(C)C)CC3)nc2n(C(C)C)c1=O [Compound 142, 3-Cyano-N-(5-(2-(((1r,4r)-4-(dimethylamino)cyclohexyl)amino)-8-isopropyl-7-oxo-7,8-dihydropyrido[2,3-d]pyrimidin-6-yl)-6-methylpyridin-2-yl)benzenesulfonamide]"
9,9.89,"CC(C)n1c(=O)c(-c2ccc(NS(=O)(=O)CC3CCCC3)c(F)c2)cc2cnc(N[C@H]3CC[C@H](N(C)C)CC3)nc21 [Compound 109, 1-Cyclopentyl-N-(4-(2-(((1r,4r)-4-(dimethylamino)cyclohexyl)amino)-8-isopropyl-7-oxo-7,8-dihydropyrido[2,3-d]pyrimidin-6-yl)-2-fluorophenyl)methanesulfonamide]"
10,9.30,"Cc1cc(-c2nc3cnc(N[C@@H]4CNC[C@@H](F)C4)nc3n(C(C)C)c2=O)cc(F)c1NS(=O)(=O)Cc1ccccc1 [Compound 72, N-[2-Fluoro-4-[2-[[(3S,5S)-5-fluoro-3-piperidyl]amino]-8-isopropyl-7-oxo-pteridin-6-yl]-6-methyl-phenyl]-1-phenyl-methanesulfonamide]"
11,8.55,"CC(C)n1c(=O)c(-c2cc(F)c(NC(=O)C3CC3F)c(F)c2F)cc2cnc(N[C@H]3CC[C@H](N(C)C)CC3)nc21 (single isomer, unassigned) [Compound 98A, N-(4-(2-(((1r,4r)-4-(Dimethylamino)cyclohexyl)amino)-8-isopropyl-7-oxo-7,8-dihydropyrido[2,3-d]pyrimidin-6-yl)-2,3,6-trifluorophenyl)-2-fluorocyclopropane-1-carboxamide]"
12,7.70,"CC(C)n1c(=O)c(-c2ccc(NS(=O)(=O)CCC(F)(F)F)c(F)c2)cc2cnc(NC3CCN(C)CC3)nc21 [Compound 200, 3,3,3-Trifluoro-N-(2-fluoro-4-(8-isopropyl-2-((1-methylpiperidin-4-yl)amino)-7-oxo-7,8-dihydropyrido[2,3-d]pyrimidin-6-yl)phenyl)propane-1-sulfonamide formate]"
13,9.57,"Cc1nc(NS(=O)(=O)c2ccccc2Cl)ccc1-c1cc2cnc(N[C@H]3CC[C@H](N(C)CCF)CC3)nc2n(C(C)C)c1=O [Compound 145, 2-Chloro-N-(5-(2-(((1r,4r)-4-((2-fluoroethyl)(methyl)amino)cyclohexyl)amino)-8-isopropyl-7-oxo-7,8-dihydropyrido[2,3-d]pyrimidin-6-yl)-6-methylpyridin-2-yl)benzenesulfonamide]"
14,9.00,"CC(C)n1c(=O)c(-c2ccc(NS(=O)(=O)CCC(F)F)c(F)c2)nc2cnc(N[C@@H]3CNC[C@H](CF)C3)nc21 [Compound 78, 3,3-Difluoro-N-[2-fluoro-4-[2-[[(3S,5R)-5-(fluoromethyl)-3-piperidyl]amino]-8-isopropyl-7-oxo-pteridin-6-yl]phenyl]propane-1-sulfonamide]"
15,9.52,"CC(C)n1c(=O)c(-c2ccc(NS(=O)(=O)CC3CC(F)(F)C3)c(F)c2)nc2cnc(N[C@H]3CC[C@H](N(C)C)CC3)nc21 [Example 279, 1-(3,3-Difluorocyclobutyl)-N-[4-[2-[[4-(dimethylamino)cyclohexyl]amino]-8-isopropyl-7-oxo-pteridin-6-yl]-2-fluoro-phenyl]methanesulfonamide]"
16,9.62,"CC(C)n1c(=O)c(-c2ccc(NS(=O)(=O)Cc3ccccc3)c(F)c2)nc2cnc(N[C@@H]3CNC[C@H](CF)C3)nc21 [Compound 65, N-(2-Fluoro-4-(2-(((3S,5R)-5-(fluoromethyl)piperidin-3-yl)amino)-8-isopropyl-7-oxo-7,8-dihydropteridin-6-yl)phenyl)-1-phenylmethanesulfonamide]"
17,9.52,"CC(C)n1c(=O)c(-c2ccc(NS(=O)(=O)CCC(F)(F)F)c(F)c2)cc2cnc(NC3CCC4(CC3)CN(CCF)C4)nc21 [Example 235, 3,3,3-trifluoro-N-(2-fluoro-4-(2-((2-(2-fluoroethyl)-2-azaspiro-[3.5]nonan-7-yl)amino)-8-isopropyl-7-oxo-7,8-dihydropyrido[2,3-d]-pyrimidin-6-yl)phenyl)-propane-1-sulfonamide]"
18,9.74,"CC(C)n1c(=O)c(-c2ccc(NS(=O)(=O)CCC(F)(F)F)c(F)c2)cc2cnc(NC3CCC(N(C)C)C(F)C3)nc21 (single isomer, unassigned) [Compound 110A, N-(4-(2-((4-(Dimethylamino)-3-fluorocyclohexyl)amino)-8-isopropyl-7-oxo-7,8-dihydropyrido[2,3-d]pyrimidin-6-yl)-2-fluorophenyl)-3,3,3-trifluoropropane-1-sulfonamide]"
19,9.47,"CC(C)n1c(=O)c(-c2cc(F)c(NS(=O)(=O)c3ccccc3)c(F)c2F)cc2cnc(N[C@@H]3CNC[C@@H](F)C3)nc21 [Compound 54, N-(2,3,6-Trifluoro-4-(2-(((3S,5S)-5-fluoropiperidin-3-yl)amino)-8-isopropyl-7-oxo-7,8-dihydropyrido[2,3-d]pyrimidin-6-yl)phenyl)benzenesulfonamide]"
20,9.20,"CC(C)n1c(=O)c(-c2cc(F)c(NS(=O)(=O)Cc3ccccc3F)c(F)c2F)cc2cnc(N[C@@H]3CNC[C@@H](O)C3)nc21 (racemic) [Compound 87, 1-(2-Fluorophenyl)-N-(2,3,6-trifluoro-4-(2-((5-hydroxypiperidin-3-yl)amino)-8-isopropyl-7-oxo-7,8-dihydropyrido[2,3-d]pyrimidin-6-yl)phenyl)methanesulfonamide]"
21,9.70,"CC(C)n1c(=O)c(-c2ccc(NS(=O)(=O)CC3(C(F)(F)F)CCC3)c(F)c2)nc2cnc(N[C@H]3CC[C@H](N(C)C)CC3)nc21 [Example 261, N-[4-[2-[[4-(Dimethylamino)cyclohexyl]amino]-8-isopropyl-7-oxo-pteridin-6-yl]-2-fluoro-phenyl]-1-[1-(trifluoromethyl)cyclobutyl]methanesulfonamide]"
22,8.55,"Cn1c(=O)c(-c2ccc(NS(=O)(=O)Cc3ccccc3)c(F)c2F)cc2cnc(N[C@H]3CCCNC3)nc21 [Compound 1, (S)—N-(2,3-Difluoro-4-(8-methyl-7-oxo-2-(piperidin-3-ylamino)-7,8-dihydropyrido[2,3-d]pyrimidin-6-yl)phenyl)-1-phenylmethanesulfonamide]"
23,9.24,"CC(C)n1c(=O)c(-c2cc(F)c(NS(=O)(=O)Cc3ccn(CC(F)(F)F)n3)c(F)c2F)cc2cnc(N[C@@H]3CNC[C@@H](F)C3)nc21 [Compound 158, N-(2,3,6-Trifluoro-4-(2-(((3S,5S)-5-fluoropiperidin-3-yl)amino)-8-isopropyl-7-oxo-7,8-dihydropyrido[2,3-d]pyrimidin-6-yl)phenyl)-1-(1-(2,2,2-trifluoroethyl)-1H-pyrazol-3-yl)methanesulfonamide]"
